Assay results taken from patent US6372785B1, “Synthesis of 1,8-dichloro-anthracene analogues and pharmaceutical compositions based thereon” (Keith Chan, President GloboAsia, LLC, priority 2000, dated 2002).

First: Cc1ccc(C(=O)Oc2c3c(Cl)cccc3cc3cccc(Cl)c23)cc1 [Compound 3o, 1,8-Dichloro-9-(p-toluoyloxy)anthracene]
Second: Cc1cccc(C(=O)Oc2c3c(Cl)cccc3cc3cccc(Cl)c23)c1 [Compound 3n, 1,8-Dichloro-9-(m-toluoyloxy)anthracene]
The melting point of the first is higher: 220 to 222 °C for the first, 196 to 198 °C for the second.

First: Cc1ccccc1C(=O)Oc1c2c(Cl)cccc2cc2cccc(Cl)c12 [Compound 3m, 1,8-Dichloro-9-(o-toluoyloxy)anthracene]
Second: O=C(Oc1c2c(Cl)cccc2cc2cccc(Cl)c12)c1ccccc1 [Compound 3L, 1,8-Dichloro-9-benzoyloxyanthracene]
The melting point of the first is lower: 168 to 170 °C for the first, 183 to 185 °C for the second.

Compared with O=C(CCCBr)Oc1c2c(Cl)cccc2cc2cccc(Cl)c12 [Compound 3I, 1,8-Dichloro-9-(4-bromobutyroxy)anthracene], O=C(CBr)Oc1c2c(Cl)cccc2cc2cccc(Cl)c12 [Compound 3b, 1,8-Dichloro-9-bromoacetoxyanthracene] is higher in melting point: 155 to 157 °C for the first, 192 to 193 °C for the second.

First: CC(C)C(=O)Oc1c2c(Cl)cccc2cc2cccc(Cl)c12 [Compound 3e, 1,8-Dichloro-9-isobutyroxyanthracene]
Second: CC(=O)Oc1c2c(Cl)cccc2cc2cccc(Cl)c12 [Compound 3a, 1,8-Dichloro-9-acetoxyanthracene]
The melting point of the first is higher: 184 to 186 °C for the first, 130 to 131 °C for the second.

First: O=C(CCl)Oc1c2c(Cl)cccc2cc2cccc(Cl)c12 [Compound 3c, 1,8-Dichloro-9-chloroacetoxyanthracene]
Second: CCC(=O)Oc1c2c(Cl)cccc2cc2cccc(Cl)c12 [Compound 3d, 1,8-Dichloro-9-propionoxyanthracene]
The melting point of the first is higher: 178 to 180 °C for the first, 150 to 152 °C for the second.

Compared with CCCCCC(=O)Oc1c2c(Cl)cccc2cc2cccc(Cl)c12 [Compound 3k, 1,8-Dichloro-9-hexanoyloxyanthracene], CCCC(=O)Oc1c2c(Cl)cccc2cc2cccc(Cl)c12 [Compound 3h, 1,8-Dichloro-9-butyroxyanthracene] is higher in melting point: 136 to 138 °C for the first, 152 to 154 °C for the second.
